Measured values taken from the NIST ThermoML archive (doi:10.1016/j.jct.2016.07.008).
± gives the expanded uncertainty stated by the source.

Experiment: xn = mol fraction of the nth substance listed
Conditions: Liquid, Vibrating wire viscometry

CC(C)CC(C)(C)C [2,2,4-trimethylpentane] + CCCCO
viscosity [mPa·s]
Conditions	293.15 K	313.15 K	333.15 K	353.15 K
100 kPa, x2 = 0.3002	0.651 ± 0.011	0.4938 ± 0.0092	0.3855 ± 0.0076	0.3085 ± 0.0066
100 kPa, x2 = 0.5003	0.8986 ± 0.015	0.6427 ± 0.011	0.4739 ± 0.0089	0.3658 ± 0.0074
100 kPa, x2 = 0.8	1.777 ± 0.029	1.151 ± 0.019	0.7766 ± 0.013	0.5523 ± 0.01
1000 kPa, x2 = 0.3002	0.6579 ± 0.012	0.4951 ± 0.0092	0.3922 ± 0.0077	0.3131 ± 0.0067
1000 kPa, x2 = 0.5003	0.9064 ± 0.015	0.6458 ± 0.011	0.4756 ± 0.0089	0.3715 ± 0.0074
1000 kPa, x2 = 0.8	1.805 ± 0.029	1.161 ± 0.019	0.7891 ± 0.014	0.5621 ± 0.01
5000 kPa, x2 = 0.3002	0.6912 ± 0.012	0.5303 ± 0.0097	0.4188 ± 0.0081	0.3362 ± 0.007
5000 kPa, x2 = 0.5003	0.9556 ± 0.016	0.6742 ± 0.012	0.5003 ± 0.0093	0.3955 ± 0.0078
5000 kPa, x2 = 0.8	1.837 ± 0.03	1.216 ± 0.02	0.8182 ± 0.014	0.5811 ± 0.01
10000 kPa, x2 = 0.3002	0.7318 ± 0.013	0.5681 ± 0.01	0.4439 ± 0.0085	0.3574 ± 0.0073
10000 kPa, x2 = 0.5003	0.9979 ± 0.017	0.7086 ± 0.012	0.5334 ± 0.0098	0.4195 ± 0.0081
10000 kPa, x2 = 0.8	1.949 ± 0.031	1.279 ± 0.021	0.868 ± 0.015	0.6183 ± 0.011
20000 kPa, x2 = 0.3002	0.8168 ± 0.014	0.6344 ± 0.011	0.4973 ± 0.0092	0.3982 ± 0.0078
20000 kPa, x2 = 0.5003	1.14 ± 0.019	0.8024 ± 0.014	0.5894 ± 0.011	0.4654 ± 0.0088
20000 kPa, x2 = 0.8	2.161 ± 0.035	1.402 ± 0.023	0.9602 ± 0.016	0.6708 ± 0.012
30000 kPa, x2 = 0.3002	0.9098 ± 0.015	0.7073 ± 0.012	0.552 ± 0.01	0.4475 ± 0.0085
30000 kPa, x2 = 0.5003	1.274 ± 0.021	0.8924 ± 0.015	0.6494 ± 0.011	0.5151 ± 0.0095
30000 kPa, x2 = 0.8	2.353 ± 0.038	1.54 ± 0.025	1.04 ± 0.017	0.7334 ± 0.013
40000 kPa, x2 = 0.3002	1.004 ± 0.017	0.7728 ± 0.013	0.6073 ± 0.011	0.491 ± 0.0091
40000 kPa, x2 = 0.5003	1.415 ± 0.023	0.9864 ± 0.017	0.7134 ± 0.012	0.5714 ± 0.01
40000 kPa, x2 = 0.8	2.578 ± 0.041	1.674 ± 0.027	1.132 ± 0.019	0.793 ± 0.014
50000 kPa, x2 = 0.3002	1.108 ± 0.018	0.8419 ± 0.014	0.6677 ± 0.012	0.5403 ± 0.0099
50000 kPa, x2 = 0.5003	1.562 ± 0.025	1.084 ± 0.018	0.7814 ± 0.013	0.6195 ± 0.011
50000 kPa, x2 = 0.8	2.826 ± 0.045	1.825 ± 0.029	1.232 ± 0.02	0.8609 ± 0.015
60000 kPa, x2 = 0.3002	1.215 ± 0.02	0.9375 ± 0.016	0.7297 ± 0.013	0.592 ± 0.011
60000 kPa, x2 = 0.5003	1.739 ± 0.028	1.186 ± 0.02	0.8534 ± 0.015	0.679 ± 0.012
60000 kPa, x2 = 0.8	3.038 ± 0.048	1.972 ± 0.032	1.328 ± 0.022	0.9278 ± 0.016
70000 kPa, x2 = 0.3002	1.324 ± 0.022	1.005 ± 0.017	0.7944 ± 0.014	0.6322 ± 0.011
70000 kPa, x2 = 0.5003	1.895 ± 0.031	1.292 ± 0.021	0.9294 ± 0.016	0.7319 ± 0.013
70000 kPa, x2 = 0.8	3.308 ± 0.053	2.114 ± 0.034	1.419 ± 0.023	0.9984 ± 0.017
80000 kPa, x2 = 0.3002	1.433 ± 0.023	1.081 ± 0.018	0.857 ± 0.015	0.6788 ± 0.012
80000 kPa, x2 = 0.5003	2.055 ± 0.033	1.402 ± 0.023	1.009 ± 0.017	0.7953 ± 0.014
80000 kPa, x2 = 0.8	3.537 ± 0.056	2.283 ± 0.037	1.531 ± 0.025	1.069 ± 0.018
100000 kPa, x2 = 0.3002	1.679 ± 0.027	1.235 ± 0.02	0.9892 ± 0.017	0.7915 ± 0.014
100000 kPa, x2 = 0.5003	2.387 ± 0.038	1.634 ± 0.027	1.181 ± 0.02	0.9151 ± 0.015
100000 kPa, x2 = 0.8	4.066 ± 0.064	2.619 ± 0.042	1.735 ± 0.028	1.203 ± 0.02
120000 kPa, x2 = 0.3002	1.942 ± 0.031	1.413 ± 0.023	1.133 ± 0.019	0.8951 ± 0.015
120000 kPa, x2 = 0.5003	2.735 ± 0.044	1.882 ± 0.03	1.369 ± 0.023	1.026 ± 0.017
120000 kPa, x2 = 0.8	4.653 ± 0.074	2.954 ± 0.047	1.973 ± 0.032	1.365 ± 0.022
140000 kPa, x2 = 0.3002	2.211 ± 0.036	1.587 ± 0.026	1.279 ± 0.021	1.007 ± 0.017
140000 kPa, x2 = 0.5003	3.099 ± 0.049	2.146 ± 0.034	1.573 ± 0.026	1.14 ± 0.019
140000 kPa, x2 = 0.8	5.322 ± 0.084	3.328 ± 0.053	2.212 ± 0.036	1.526 ± 0.025

CCCCO [butan-1-ol] + CC(C)CC(C)(C)C
viscosity [mPa·s], x1 = 1
Conditions	293.15 K	298.15 K	313.15 K	323.15 K	333.15 K	348.15 K	353.15 K
100 kPa	2.969 ± 0.047	2.601 ± 0.042	1.797 ± 0.029	1.429 ± 0.023	1.156 ± 0.019	0.8579 ± 0.015	0.7903 ± 0.014
1000 kPa	3.001 ± 0.048	2.622 ± 0.042	1.813 ± 0.029	1.44 ± 0.024	1.172 ± 0.019	0.8647 ± 0.015	0.7943 ± 0.014
5000 kPa	3.108 ± 0.049	2.715 ± 0.043	1.89 ± 0.03	1.491 ± 0.024	1.227 ± 0.02	0.8956 ± 0.015	0.8284 ± 0.014
10000 kPa	3.244 ± 0.052	2.834 ± 0.045	1.967 ± 0.032	1.556 ± 0.025	1.29 ± 0.021	0.9349 ± 0.016	0.8637 ± 0.015
20000 kPa	3.479 ± 0.055	3.079 ± 0.049	2.14 ± 0.034	1.69 ± 0.027	1.389 ± 0.023	1.016 ± 0.017	0.9473 ± 0.016
30000 kPa	3.788 ± 0.06	3.333 ± 0.053	2.319 ± 0.037	1.829 ± 0.03	1.504 ± 0.025	1.101 ± 0.018	1.04 ± 0.017
40000 kPa	4.078 ± 0.065	3.599 ± 0.057	2.48 ± 0.04	1.975 ± 0.032	1.624 ± 0.026	1.189 ± 0.02	1.102 ± 0.018
50000 kPa	4.401 ± 0.07	3.874 ± 0.061	2.629 ± 0.042	2.125 ± 0.034	1.741 ± 0.028	1.28 ± 0.021	1.21 ± 0.02
60000 kPa	4.74 ± 0.075	4.16 ± 0.066	2.852 ± 0.045	2.281 ± 0.037	1.867 ± 0.03	1.375 ± 0.023	1.295 ± 0.021
70000 kPa	5.076 ± 0.08	4.455 ± 0.071	3.089 ± 0.049	2.443 ± 0.039	2.014 ± 0.032	1.473 ± 0.024	1.384 ± 0.023
80000 kPa	5.438 ± 0.086	4.761 ± 0.075	3.247 ± 0.052	2.61 ± 0.042	2.137 ± 0.034	1.575 ± 0.026	1.473 ± 0.024
100000 kPa	6.164 ± 0.097	5.404 ± 0.085	3.686 ± 0.058	2.962 ± 0.047	2.384 ± 0.038	1.788 ± 0.029	1.676 ± 0.027
120000 kPa	6.979 ± 0.11	6.087 ± 0.096	4.192 ± 0.066	3.335 ± 0.053	2.633 ± 0.042	2.015 ± 0.032	1.857 ± 0.03
140000 kPa	7.843 ± 0.12	6.811 ± 0.11	4.638 ± 0.073	3.682 ± 0.058	2.883 ± 0.046	2.255 ± 0.036	2.037 ± 0.033

CCCCO [butan-1-ol] + Cc1ccc(C)c(C)c1
viscosity [mPa·s], x1 = 1
Conditions	293.15 K	298.15 K	313.15 K	323.15 K	333.15 K	348.15 K	353.15 K
100 kPa	2.969 ± 0.047	2.601 ± 0.042	1.797 ± 0.029	1.429 ± 0.023	1.156 ± 0.019	0.8579 ± 0.015	0.7903 ± 0.014
1000 kPa	3.001 ± 0.048	2.622 ± 0.042	1.813 ± 0.029	1.44 ± 0.024	1.172 ± 0.019	0.8647 ± 0.015	0.7943 ± 0.014
5000 kPa	3.108 ± 0.049	2.715 ± 0.043	1.89 ± 0.03	1.491 ± 0.024	1.227 ± 0.02	0.8956 ± 0.015	0.8284 ± 0.014
10000 kPa	3.244 ± 0.052	2.834 ± 0.045	1.967 ± 0.032	1.556 ± 0.025	1.29 ± 0.021	0.9349 ± 0.016	0.8637 ± 0.015
20000 kPa	3.479 ± 0.055	3.079 ± 0.049	2.14 ± 0.034	1.69 ± 0.027	1.389 ± 0.023	1.016 ± 0.017	0.9473 ± 0.016
30000 kPa	3.788 ± 0.06	3.333 ± 0.053	2.319 ± 0.037	1.829 ± 0.03	1.504 ± 0.025	1.101 ± 0.018	1.04 ± 0.017
40000 kPa	4.078 ± 0.065	3.599 ± 0.057	2.48 ± 0.04	1.975 ± 0.032	1.624 ± 0.026	1.189 ± 0.02	1.102 ± 0.018
50000 kPa	4.401 ± 0.07	3.874 ± 0.061	2.629 ± 0.042	2.125 ± 0.034	1.741 ± 0.028	1.28 ± 0.021	1.21 ± 0.02
60000 kPa	4.74 ± 0.075	4.16 ± 0.066	2.852 ± 0.045	2.281 ± 0.037	1.867 ± 0.03	1.375 ± 0.023	1.295 ± 0.021
70000 kPa	5.076 ± 0.08	4.455 ± 0.071	3.089 ± 0.049	2.443 ± 0.039	2.014 ± 0.032	1.473 ± 0.024	1.384 ± 0.023
80000 kPa	5.438 ± 0.086	4.761 ± 0.075	3.247 ± 0.052	2.61 ± 0.042	2.137 ± 0.034	1.575 ± 0.026	1.473 ± 0.024
100000 kPa	6.164 ± 0.097	5.404 ± 0.085	3.686 ± 0.058	2.962 ± 0.047	2.384 ± 0.038	1.788 ± 0.029	1.676 ± 0.027
120000 kPa	6.979 ± 0.11	6.087 ± 0.096	4.192 ± 0.066	3.335 ± 0.053	2.633 ± 0.042	2.015 ± 0.032	1.857 ± 0.03
140000 kPa	7.843 ± 0.12	6.811 ± 0.11	4.638 ± 0.073	3.682 ± 0.058	2.883 ± 0.046	2.255 ± 0.036	2.037 ± 0.033
